Assays:
[1] = Plasma IAsp exposure during 8-hour euglycemic clamp; format: in vivo, human; conditions: healthy subjects, 0.2 IU/kg s.c., group A (basal BG < 4.00 mmol/L, target BG 2.5% below baseline), before PSM, n = 15, LC-MS/MS, trapezoidal, mean ± SD
blood glucose = assay: Euglycemic clamp, glucose infusion rate; format: in vivo, human; conditions: healthy subjects, 0.2 IU/kg s.c., 8-hour euglycemic clamp, 20% dextrose, group A (target BG 2.5% below baseline), n = 15, mean ± SD

insulin aspart [IAsp]
AUCIAsp, 0-8 h [1]: 566 ± 51 ng·h/mL | AUCGIR, 0-8 h (blood glucose; after PSM): 1433 ± 400 mg/kg | AUCGIR, 0-8 h (blood glucose; before PSM): 1433 ± 400 mg/kg
